What was measured:
Type in all cases: biochemical, influenza A(H3N2) virus
[1] = biological target: A/Victoria/361/2011 NA with T439R (Q136, T148, R150, R439) (Influenza A virus, UniProt G9LQ08, H150R/T439R)
[2] = biological target: A/Victoria/361/2011 NA with T148I (Q136, I148, R150, T439) (Influenza A virus, UniProt G9LQ08, H150R/T148I)
[3] = biological target: A/Victoria/361/2011 NA with R150H (Q136, T148, H150, T439) (Influenza A virus, UniProt G9LQ08)
[4] = biological target: A/Victoria/361/2011 NA with Q136K (K136, T148, R150, T439) (Influenza A virus, UniProt G9LQ08, H150R/Q136K)

With `CCC(CC)[C@H](NC(C)=O)[C@@H]1[C@H](O)[C@@H](C(=O)O)C[C@H]1N=C(N)N` [Peramivir, peramivir] the IC50 [1] was 0.24 nM, the IC50 fold-change [1] was 0.24 ± 0.04 (3) fold and the IC50 [2] was 0.09 nM. The IC50 fold-change [2] was 0.09 ± 0.01 (1) fold, the IC50 [3] was 0.08 nM and the IC50 fold-change [3] was 0.08 ± 0.01 (1) fold. The IC50 [4] was 0.56 nM and the IC50 fold-change [4] was 0.56 ± 0.09 (8) fold.

Source: publication PMC10549826 (Antiviral research, 2023)
